Reference: patent publication US12440570B2, “Conjugation of MCR1 ligand with cytotoxic drugs for treating skin cancer” (ARIZONA BOARD OF REGENTS ON BEHALF OF THE UNIVERSITY OF …, priority 2019, dated 2025)
Read-outs that look alike come from different tables or passages of the source.

Tests used:
[1] = tested on: A375 melanoma cells; experiment: cells; format: cell-based, human; conditions: XTT, 24 h incubation, read-out: IC50, A375 melanoma cell viability
Experimental: A375 cells were seeded in 96 well plates at a density of around 10^5 cells per well in 95 μL of MEM medium and incubated for 24 h, Cells were treated with 5 μL of drugs in a final concentration of 0, 0.3 nM, 1 nM, 3 nM, 10 nM, 30 nM, 100 nM and 300 nM for 24 h. XTT solution was prepared by dissolving 4 mg XTT in 4 mL MEM medium. PMS solution was prepared by dissolving 3 mg of PMS in 1 mL of phosphate buffer saline (PBS). 10 μL of PMS solution was added to 4 mL of XTT solution, and 25 μL of the PMS/XTT mixture was added to each well. The plate was incubated at 37 ° C. for another 2 h culture. Absorbance was measured at 450 nm using a pQuant Universal Microplate Reader (Bio-Tek instruments, Inc., Winooski, VT). Absorbance from no-cells control was subtracted and the percentage of cell viability was calculated as the percentage of absorbance relative to cells treated with medium.

[2] = cited from earlier work
[3] = linear peptide; cited from earlier work
[4] = target: T1, human MC1R (Homo sapiens, UniProt Q01726); experiment: Competitive binding assay with 125I labelled NDP-α-MSH on whole cells, MC1R; conditions: for Ki: HEK293 cells overexpressing human MC1R, 125I NDP-α-MSH; for displacement of NDP-α-MSH from MC1R: within micromolar range concentration
T1 construct: expressed in transfected cells; host or cells: HEK293 (stably transfected)
T1 sequence (Q01726 whole entry): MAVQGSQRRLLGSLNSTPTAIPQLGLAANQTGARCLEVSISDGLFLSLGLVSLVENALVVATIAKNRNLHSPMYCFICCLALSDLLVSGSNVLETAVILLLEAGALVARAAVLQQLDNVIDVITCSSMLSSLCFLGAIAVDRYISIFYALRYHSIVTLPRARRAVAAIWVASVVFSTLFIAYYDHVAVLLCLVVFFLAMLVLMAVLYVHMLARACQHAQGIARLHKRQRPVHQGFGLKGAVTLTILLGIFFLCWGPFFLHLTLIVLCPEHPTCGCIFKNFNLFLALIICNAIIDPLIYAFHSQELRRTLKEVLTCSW
Experimental: Competitive binding assays were performed on whole cells. Stably transfected HEK293 cell lines overexpressing human MC1R, MC3R, MC4R or MC5R were seeded on 96-well plates 48 h before the assay and grown to 100,000 cells per well. For the assay, the medium was removed, and cells were washed twice with a binding buffer containing minimum essential medium with Earle's salt (MEM, GIBCO), 25 mM HEPES (pH 7.4), 0.2% bovine serum albumin, 1 mM 1,10-phenanthrolone, 0.5 mg/L leupeptin and 200 mg/L bacitracin. Cells were incubated with different concentrations of unlabeled test compounds and ^125I labelled NDP-α-MSH (PerkinElmer, 100,000 cpm/well, 0.1386 nM) for 40 min at 37° C. The medium was subsequently removed, and the cells were washed twice with the binding buffer. The cells were lysed by 50 μL of 0.1 mM NaOH and 50 μL of 1% Triton X-100. The plates were left dry overnight under the hood, and 50 μL of scintillation fluid (OptiPhase SuperMix, PerkinElmer) were added in each well. The radioactivity was measured using MicroBeta 2 microplate counter (PerkinElmer).

[5] = tested on: A375 malignant melanoma cells; experiment: Live-cell confocal microscopy, fluorescence uptake by A375 cells; format: cell-based, human
Experimental: (§1) 1 mL of A375 or HEK293 cell suspension (˜5×10^4 cells) were seeded in 35 mm No. 1.5 coverslip glass-bottomed microwell dish (MatTek) and cultured overnight. Cells were gently washed with PBS twice and treated with compound 2 (3 μM) with or without MT-II (30 μM) in phenol red-free, HEPES-supplemented DMEM. After incubation at 37° C. for indicated time, cells were washed three times with PBS before imaging. Images were taken with Zeiss LSM880 inverted confocal microscope with either bright field or laser at […] with 2% laser power and Plan-Apochromat 63×/1.4 Oil DIC M27 objective.

[6] = tested on: HEK293 kidney epithelial cells; experiment: Live-cell confocal microscopy, fluorescence uptake by HEK293 cells; format: cell-based; conditions: 3 μM, 2.5 h
Experimental: as §1

For CC[C@@]1(O)C(=O)OCc2c1cc1n(c2=O)Cc2cc3ccccc3nc2-1 [CPT, camptothecin, reference compound], the IC50 ([1]; Homo sapiens, A-375) is given as 47 ± 2 nM and the solubility [2] is given as “poor solubility”.
In the case of α-MSH, the half-life [3] is given as “around 10 minutes”.
For CCCC[C@H](NC(=O)CCCCCNC(=O)[C@@H](N)CSSCCOC(=O)O[C@]1(CC)C(=O)OCc2c1cc1n(c2=O)Cc2cc3ccccc3nc2-1)C(=O)N[C@H]1CC(=O)NCCCC[C@@H](C(N)=O)NC(=O)[C@H](Cc2c[nH]c3ccccc23)NC(=O)[C@H](CCCNC(=N)N)NC(=O)[C@@H](Cc2ccccc2)NC(=O)[C@H](Cc2c[nH]cn2)NC1=O [CPT-MT-II (1)], the Ki ([4]; Ki MC1R) was 57 nM, the “selectivity to MC1R as compared to MC3R, MC4R and MC5R” value ([4]; from Ki values) was 3-6 fold and the IC50 [1] was 16 nM.
For CCCC[C@H](NC(=O)CCCCCNC(=O)[C@@H](N)CSSCCOC(=O)Oc1ccc2c(c1)Oc1cc(O)ccc1C21OC(=O)c2ccccc21)C(=O)N[C@H]1CC(=O)NCCCC[C@@H](C(N)=O)NC(=O)[C@H](Cc2c[nH]c3ccccc23)NC(=O)[C@H](CCCNC(=N)N)NC(=O)[C@@H](Cc2ccccc2)NC(=O)[C@H](Cc2c[nH]cn2)NC1=O (some centres unmarked) [fluorescein-MT-II (2)], the Ki ([4]; read-out: Ki MC1R) was 172 nM, the “displacement of NDP-α-MSH from MC1R” value [4] was “fully displace” and the “displacement of NDP-α-MSH from MC1R” value ([4]; listed as fluorescein-MT-II) was “fully displace NDP-α-MSH”. The “fluorescence uptake by A375 cells” value ([5]; 3 μM with 30 μM of MT-II, 2.5 h) was “not observed”, the “fluorescence uptake by A375 cells” value ([5]; 3 μM, 0.5 h) was “No significant fluorescence uptake” and the “fluorescence uptake by A375 cells” value ([5]; 3 μM, 2.5 h) was “strong fluorescence”. For the same compound, the “time for release of fluorescein into A375” value ([5]; confocal microscopy) was “at least 90 minutes” and the “fluorescence uptake by HEK293 cells compared to A375 cells” value [6] was “much weaker fluorescence intensity”.
